Data published in patent US8518980B2, “Treatment of Duchenne muscular dystrophy” (Summit Corporation PLC, priority 2006, dated 2013).

System: Utrophin A promoter linked to a luciferase reporter gene (H2K/mdx/Utro A reporter cell line)
Experiment: Luciferase reporter assay (murine H2K cells)
Conditions: Mus musculus, H2K mdx

SMILES	activity at 10 µM [%]
CC(=O)Nc1cccc(-c2nc3ccccc3s2)c1 [Example 513, N-(3-(benzo[d]thiazol-2-yl)phenyl)acetamide]	< 200
Clc1cccc(-c2nc3ccccc3[nH]2)c1 [Example 514, 2-(3-chlorophenyl)-1H-benzo[d]imidazole]	< 200
COc1ccc(-c2nc3cc(N)ccc3o2)cc1OC [Example 515, 2-(3,4-dimethoxyphenyl)benzo[d]oxazol-5-amine]	201 to 300
O=S(=O)(c1ccc(-c2nc3ccccc3s2)cc1)N1CCCCC1 [Example 516, 2-(4-(piperidin-1-ylsulfonyl)phenyl)benzo[d]thiazole]	201 to 300
CC(=O)Nc1ccc2oc(-c3ccc(Cl)cc3Cl)nc2c1 [Example 517, N-(2-(2,4-dichlorophenyl)benzo[d]oxazol-5-yl)acetamide]	201 to 300
Nc1ccc(-c2nc3cc(Cl)cc(Cl)c3o2)cc1 [Example 518, 4-(5,7-dichlorobenzo[d]oxazol-2-yl)aniline]	201 to 300
COc1ccc(-c2nc3cc(NC(C)=O)ccc3o2)cc1Cl [Example 519, N-(2-(3-chloro-4-methoxyphenyl)benzo[d]oxazol-5-yl)acetamide]	201 to 300
COc1ccc(-c2nc3cc([N+](=O)[O-])ccc3[nH]2)cc1OC [Example 520, 2-(3,4-dimethoxyphenyl)-5-nitro-1H-benzo[d]imidazole]	< 200
COc1ccc(-c2nc3ccccc3n2C)cc1OC [Example 521, 2-(3,4-dimethoxyphenyl)-1-methyl-1H-benzo[d]imidazole]	< 200
COc1ccccc1-c1nc2ccccc2s1 [Example 522, 2-(2-methoxyphenyl)benzo[d]thiazole]	< 200
O=[N+]([O-])c1cc(-c2nc3ccccc3s2)ccc1Cl [Example 523, 2-(4-chloro-3-nitrophenyl)benzo[d]thiazole]	< 200
O=[N+]([O-])c1ccc(Cl)c(-c2nc3ccccc3s2)c1 [Example 524, 2-(2-chloro-5-nitrophenyl)benzo[d]thiazole]	< 200
O=[N+]([O-])c1ccc2oc(-c3ccc(F)cc3)nc2c1 [Example 525, 2-(4-fluorophenyl)-5-nitrobenzo[d]oxazole]	< 200
Cc1ccc(-c2nc3cc(N)ccc3o2)cc1Cl [Example 526, 2-(3-chloro-4-methylphenyl)benzo[d]oxazol-5-amine]	201 to 300
Cc1ccc(-c2nc3cc(N)ccc3o2)c(Cl)c1 [Example 527, 2-(2-chloro-4-methylphenyl)benzo[d]oxazol-5-amine]	201 to 300
COc1ccc(OCc2nc3ccccc3n2C)cc1 [Example 528, 2-((4-methoxyphenoxy)methyl)-1-methyl-1H-benzo[d]imidazole]	201 to 300
CC(=O)Nc1ccc(-c2nc3cc(C)cc(C)c3o2)cc1 [Example 529, N-(4-(5,7-dimethylbenzo[d]oxazol-2-yl)phenyl)acetamide]	201 to 300
c1ccc(-c2nnc(SCc3nc4ccccc4[nH]3)o2)cc1 [Example 530, 2-((1H-benzo[d]imidazol-2-yl)methylthio)-5-phenyl-1,3,4-oxadiazole]	< 200
Cc1ccc(OCc2nc3ccccc3[nH]2)cc1 [Example 531, 2-(p-tolyloxymethyl)-1H-benzo[d]imidazole]	201 to 300
Cc1ccc2[nH]c(-c3ccc(N)cc3)nc2c1 [Example 532, 4-(5-methyl-1H-benzo[d]imidazol-2-yl)aniline]	< 200
Cc1cccc(-c2nc3cc([N+](=O)[O-])ccc3o2)c1 [Example 533, 5-nitro-2-m-tolylbenzo[d]oxazole]	201 to 300
CC(=O)Nc1ccc2[nH]c(-c3ccco3)nc2c1 [Example 534, N-(2-(furan-2-yl)-1H-benzo[d]imidazol-5-yl)acetamide]	< 200
COc1ccc(-c2nc3cc(N)ccc3[nH]2)cc1 [Example 535, 2-(4-methoxyphenyl)-1H-benzo[d]imidazol-5-amine]	201 to 300
